Test results: publication PMC6891286, “Towards the Development of an In vivo Chemical Probe for Cyclin G Associated Kinase (GAK)” (Molecules, 2019)
pIC50: −log10 of the molar value.

What was measured:
GAK [1] = biological target: T1, GAK (Homo sapiens, UniProt O14976); details: nanoBRET; read-out: Live Cell GAK IC50; cited from earlier work
T1 sequence (O14976 1-1311): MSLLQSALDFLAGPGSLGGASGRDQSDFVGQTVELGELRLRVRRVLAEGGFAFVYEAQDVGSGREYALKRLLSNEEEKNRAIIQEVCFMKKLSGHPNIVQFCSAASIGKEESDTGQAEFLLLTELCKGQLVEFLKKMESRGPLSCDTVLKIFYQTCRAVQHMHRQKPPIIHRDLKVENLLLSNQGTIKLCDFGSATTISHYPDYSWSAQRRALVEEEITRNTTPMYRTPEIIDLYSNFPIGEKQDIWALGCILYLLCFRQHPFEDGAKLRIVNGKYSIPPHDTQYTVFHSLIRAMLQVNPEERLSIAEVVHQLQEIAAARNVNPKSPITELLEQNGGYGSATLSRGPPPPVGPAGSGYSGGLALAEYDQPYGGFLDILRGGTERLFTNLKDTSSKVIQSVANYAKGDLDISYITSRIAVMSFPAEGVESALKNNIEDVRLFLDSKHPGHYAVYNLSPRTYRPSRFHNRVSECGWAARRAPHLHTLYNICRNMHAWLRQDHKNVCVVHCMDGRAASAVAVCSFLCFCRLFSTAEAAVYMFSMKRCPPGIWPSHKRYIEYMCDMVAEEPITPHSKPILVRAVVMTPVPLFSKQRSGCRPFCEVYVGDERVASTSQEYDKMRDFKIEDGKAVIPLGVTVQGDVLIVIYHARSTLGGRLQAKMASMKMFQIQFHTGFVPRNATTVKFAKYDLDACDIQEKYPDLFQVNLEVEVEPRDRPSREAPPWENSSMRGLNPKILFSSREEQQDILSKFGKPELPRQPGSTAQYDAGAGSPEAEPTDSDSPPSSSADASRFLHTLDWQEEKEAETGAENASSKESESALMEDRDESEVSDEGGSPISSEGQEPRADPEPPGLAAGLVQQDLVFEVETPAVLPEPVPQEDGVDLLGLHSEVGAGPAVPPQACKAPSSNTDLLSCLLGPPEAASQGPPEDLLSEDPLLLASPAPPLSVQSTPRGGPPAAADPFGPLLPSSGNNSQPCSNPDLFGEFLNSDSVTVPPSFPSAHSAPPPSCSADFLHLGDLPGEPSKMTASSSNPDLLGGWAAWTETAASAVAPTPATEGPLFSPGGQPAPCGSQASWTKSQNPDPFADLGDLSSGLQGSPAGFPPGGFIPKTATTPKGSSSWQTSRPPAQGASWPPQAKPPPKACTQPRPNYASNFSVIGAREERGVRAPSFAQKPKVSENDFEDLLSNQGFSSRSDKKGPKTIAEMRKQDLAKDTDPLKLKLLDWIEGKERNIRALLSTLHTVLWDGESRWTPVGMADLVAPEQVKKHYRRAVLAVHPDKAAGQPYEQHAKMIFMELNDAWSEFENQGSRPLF

[2] = metabolite identification in mouse liver microsomes
Experimental: After centrifugation, the supernatant was subjected to analysis by LCMS, and structures of metabolites were assigned on the basis of their molecular weight and fragmentation pattern.
Compounds were incubated at a concentration of 10 µM with mouse liver microsomes in the presence of an excess of NADPH.
1.1. General Numbering of Metabolites
The metabolites are numbered according to their retention times in the gradient LC-MS analysis in positive […]
ion mode. […] The M number increases […]
consecutively for metabolites with increasing retention time.
To avoid confusion, labelled retention times of a metabolite peak in different injections are the same, which may lead to mismatch between labelled retention time and actual retention time.
General Strategy for Metabolite Identification
The vehicle control and study samples were injected into LC-MS with gradient elution using a Q1 scan method. Searching for potential metabolites was then performed using LightSight software (Applied Biosystems/MDS Sciex) by comparing a total ion current chromatogram of Q1 scan from a study sample with a chromatogram from the corresponding vehicle control sample. The study sample was then injected again to obtain the product ion spectra of potential metabolites using product ion scan methods. The fragmentation patterns of the potential metabolites were then compared to the fragmentation of the parent compound to elucidate the structures of the metabolites.
The assignment of fragments is shown
2.2. Identification of Metabolites in Mouse Liver Microsomal Incubation

GSK3B = biological target: T2, GSK3B (Homo sapiens, UniProt P49841); assay: KINOMEscan; type: binding; details: 35 at 1 µM; read-out: % inhibition
T2 construct: purchased Eurofins DiscoverX (KINOMEscan)
Experimental: (§1) KinomeScan Assay on 35 was performed as previously described at EuroFins DiscoverX (Fremont, CA, USA).

LYN = biological target: T3, LYN (Homo sapiens, UniProt P07948); assay: KINOMEscan; type: binding; details: 35 at 1 µM; read-out: % inhibition
T3 construct: purchased Eurofins DiscoverX (KINOMEscan)
T3 sequence (P07948 whole entry): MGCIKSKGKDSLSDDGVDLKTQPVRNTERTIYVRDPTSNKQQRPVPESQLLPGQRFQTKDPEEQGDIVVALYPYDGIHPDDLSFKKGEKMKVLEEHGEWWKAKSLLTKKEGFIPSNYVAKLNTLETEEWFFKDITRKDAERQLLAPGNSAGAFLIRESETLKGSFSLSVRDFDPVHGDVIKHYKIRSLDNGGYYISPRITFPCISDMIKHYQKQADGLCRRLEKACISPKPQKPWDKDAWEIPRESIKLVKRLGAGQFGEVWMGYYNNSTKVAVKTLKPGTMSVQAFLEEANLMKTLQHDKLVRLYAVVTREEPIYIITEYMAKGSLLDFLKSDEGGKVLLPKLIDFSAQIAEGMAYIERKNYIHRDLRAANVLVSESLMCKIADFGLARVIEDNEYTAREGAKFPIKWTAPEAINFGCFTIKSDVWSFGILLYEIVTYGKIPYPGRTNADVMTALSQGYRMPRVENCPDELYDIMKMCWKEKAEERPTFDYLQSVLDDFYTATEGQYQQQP
Experimental: as §1

PIK3CA = biological target: T4, PIK3CA (Homo sapiens, UniProt P42336); assay: KINOMEscan; type: binding; details: 35 at 1 µM; read-out: % inhibition
T4 construct: purchased Eurofins DiscoverX (KINOMEscan)
Experimental: as §1

CAMK4 = biological target: T5, CAMK4 (Homo sapiens, UniProt Q16566); assay: KINOMEscan; type: binding; details: 35 at 1 µM; read-out: % inhibition
T5 construct: purchased Eurofins DiscoverX (KINOMEscan)
Experimental: as §1

STK39 = biological target: T6, STK39 (Homo sapiens, UniProt Q9UEW8); assay: KINOMEscan; type: binding; details: 35 at 1 µM; read-out: % inhibition
T6 construct: purchased Eurofins DiscoverX (KINOMEscan)
Experimental: as §1

NEK4 = biological target: T7, NEK4 (Homo sapiens, UniProt P51957); assay: KINOMEscan; type: binding; details: 35 at 1 µM; read-out: % inhibition
T7 construct: purchased Eurofins DiscoverX (KINOMEscan)
T7 sequence (P51957 whole entry): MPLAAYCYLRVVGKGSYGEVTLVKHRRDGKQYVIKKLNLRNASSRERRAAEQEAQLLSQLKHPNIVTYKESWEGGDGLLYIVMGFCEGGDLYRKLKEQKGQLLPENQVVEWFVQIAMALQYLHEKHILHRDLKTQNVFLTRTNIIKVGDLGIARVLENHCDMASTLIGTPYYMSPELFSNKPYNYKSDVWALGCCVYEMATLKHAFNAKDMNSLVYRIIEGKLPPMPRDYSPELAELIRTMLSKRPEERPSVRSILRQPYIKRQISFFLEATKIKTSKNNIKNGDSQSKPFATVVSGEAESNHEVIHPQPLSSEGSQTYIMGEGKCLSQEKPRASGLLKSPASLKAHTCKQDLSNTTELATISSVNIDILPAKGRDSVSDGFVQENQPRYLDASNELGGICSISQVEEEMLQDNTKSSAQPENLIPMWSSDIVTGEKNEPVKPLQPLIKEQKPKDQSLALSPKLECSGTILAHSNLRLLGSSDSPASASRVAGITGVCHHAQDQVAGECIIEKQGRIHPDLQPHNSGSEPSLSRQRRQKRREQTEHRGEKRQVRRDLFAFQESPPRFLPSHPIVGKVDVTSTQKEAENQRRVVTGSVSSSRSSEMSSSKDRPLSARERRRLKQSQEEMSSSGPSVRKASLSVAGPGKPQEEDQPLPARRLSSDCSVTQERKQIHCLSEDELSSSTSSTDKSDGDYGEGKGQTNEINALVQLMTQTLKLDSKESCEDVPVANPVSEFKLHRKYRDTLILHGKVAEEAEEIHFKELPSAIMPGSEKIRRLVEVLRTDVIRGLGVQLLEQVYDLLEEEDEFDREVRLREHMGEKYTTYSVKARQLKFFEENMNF
Experimental: as §1

ACVR1B = biological target: T8, ACVR1B (Homo sapiens, UniProt P36896); assay: KINOMEscan; type: binding; details: 35 at 1 µM; read-out: % inhibition
T8 construct: purchased Eurofins DiscoverX (KINOMEscan)
T8 sequence (P36896 24-505): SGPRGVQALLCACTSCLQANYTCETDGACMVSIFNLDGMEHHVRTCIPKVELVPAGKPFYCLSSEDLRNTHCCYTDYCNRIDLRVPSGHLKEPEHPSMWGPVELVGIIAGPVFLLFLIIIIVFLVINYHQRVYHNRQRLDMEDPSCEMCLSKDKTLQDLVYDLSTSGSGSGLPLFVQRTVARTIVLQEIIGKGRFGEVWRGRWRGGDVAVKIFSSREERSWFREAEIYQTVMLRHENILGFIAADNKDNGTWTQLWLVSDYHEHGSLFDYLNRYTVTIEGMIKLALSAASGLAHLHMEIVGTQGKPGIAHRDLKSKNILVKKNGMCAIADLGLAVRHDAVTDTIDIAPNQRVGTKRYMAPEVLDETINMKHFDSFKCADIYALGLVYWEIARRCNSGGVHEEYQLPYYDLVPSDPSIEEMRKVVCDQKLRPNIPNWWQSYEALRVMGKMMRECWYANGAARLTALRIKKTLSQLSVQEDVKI
Experimental: as §1

[3] = biological target: T9, RSK2(Kin.Dom.1-N-terminal) (Homo sapiens, UniProt P51812); assay: KINOMEscan; type: binding; details: 35 at 1 µM; read-out: % inhibition
T9 construct: RSK2(Kin.Dom.1-N-terminal); purchased Eurofins DiscoverX (KINOMEscan)
T9 sequence (P51812 68-397 limits assumed): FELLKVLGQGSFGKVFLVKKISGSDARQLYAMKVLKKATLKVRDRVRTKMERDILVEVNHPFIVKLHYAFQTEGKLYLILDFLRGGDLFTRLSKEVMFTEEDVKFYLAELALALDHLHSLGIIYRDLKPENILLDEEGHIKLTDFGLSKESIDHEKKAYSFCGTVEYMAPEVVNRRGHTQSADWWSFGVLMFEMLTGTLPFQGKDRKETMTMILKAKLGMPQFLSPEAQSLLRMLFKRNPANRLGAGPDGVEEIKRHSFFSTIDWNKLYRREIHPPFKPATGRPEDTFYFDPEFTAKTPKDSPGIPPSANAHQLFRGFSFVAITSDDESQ
Experimental: as §1

BRAF = biological target: T10, BRAF (Homo sapiens, UniProt P15056); assay: KINOMEscan; type: binding; details: 35 at 1 µM; read-out: % inhibition
T10 construct: purchased Eurofins DiscoverX (KINOMEscan)
T10 sequence (P15056 whole entry): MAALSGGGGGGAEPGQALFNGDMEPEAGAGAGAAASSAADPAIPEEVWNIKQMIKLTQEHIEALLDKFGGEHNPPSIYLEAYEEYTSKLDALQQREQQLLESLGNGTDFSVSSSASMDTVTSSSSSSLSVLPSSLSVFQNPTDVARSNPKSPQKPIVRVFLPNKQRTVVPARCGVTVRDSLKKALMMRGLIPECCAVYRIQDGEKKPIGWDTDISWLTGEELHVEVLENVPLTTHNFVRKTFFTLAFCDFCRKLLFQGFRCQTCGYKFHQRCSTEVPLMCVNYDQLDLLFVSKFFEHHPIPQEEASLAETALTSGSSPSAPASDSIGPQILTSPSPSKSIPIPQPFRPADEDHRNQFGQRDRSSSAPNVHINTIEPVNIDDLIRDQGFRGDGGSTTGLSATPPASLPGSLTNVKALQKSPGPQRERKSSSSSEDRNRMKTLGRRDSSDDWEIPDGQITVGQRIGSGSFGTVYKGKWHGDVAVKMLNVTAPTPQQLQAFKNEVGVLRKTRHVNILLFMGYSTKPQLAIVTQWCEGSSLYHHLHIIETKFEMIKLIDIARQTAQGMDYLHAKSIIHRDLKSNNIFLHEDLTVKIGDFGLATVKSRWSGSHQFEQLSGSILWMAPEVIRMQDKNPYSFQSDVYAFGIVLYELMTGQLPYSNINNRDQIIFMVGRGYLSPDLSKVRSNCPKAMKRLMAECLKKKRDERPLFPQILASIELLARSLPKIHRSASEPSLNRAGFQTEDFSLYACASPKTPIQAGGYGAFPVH
Experimental: as §1

CSNK1E = biological target: T11, CSNK1E (Homo sapiens, UniProt P49674); assay: KINOMEscan; type: binding; details: 35 at 1 µM; read-out: % inhibition
T11 construct: purchased Eurofins DiscoverX (KINOMEscan)
T11 sequence (P49674 whole entry): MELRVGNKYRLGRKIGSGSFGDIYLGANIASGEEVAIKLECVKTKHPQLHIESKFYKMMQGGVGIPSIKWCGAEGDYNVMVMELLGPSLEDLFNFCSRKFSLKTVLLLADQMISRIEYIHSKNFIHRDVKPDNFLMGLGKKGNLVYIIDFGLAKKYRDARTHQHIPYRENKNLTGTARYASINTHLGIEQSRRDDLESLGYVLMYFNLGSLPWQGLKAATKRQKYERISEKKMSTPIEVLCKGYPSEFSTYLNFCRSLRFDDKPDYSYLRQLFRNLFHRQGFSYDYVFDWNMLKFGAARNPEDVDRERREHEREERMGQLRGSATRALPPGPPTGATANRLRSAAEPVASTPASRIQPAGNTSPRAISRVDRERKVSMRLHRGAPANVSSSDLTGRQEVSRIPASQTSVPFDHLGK
Experimental: as §1

GAK [4] = biological target: T1, GAK; assay: KINOMEscan; type: binding; design: purchased Eurofins DiscoverX (KINOMEscan)
Experimental: as §1

STK16 = STK16 (Homo sapiens, UniProt O75716); assay: KINOMEscan; type: binding; design: purchased Eurofins DiscoverX (KINOMEscan); details: 35 at 1 µM; read-out: % inhibition
Sequence of STK16 (O75716 whole entry): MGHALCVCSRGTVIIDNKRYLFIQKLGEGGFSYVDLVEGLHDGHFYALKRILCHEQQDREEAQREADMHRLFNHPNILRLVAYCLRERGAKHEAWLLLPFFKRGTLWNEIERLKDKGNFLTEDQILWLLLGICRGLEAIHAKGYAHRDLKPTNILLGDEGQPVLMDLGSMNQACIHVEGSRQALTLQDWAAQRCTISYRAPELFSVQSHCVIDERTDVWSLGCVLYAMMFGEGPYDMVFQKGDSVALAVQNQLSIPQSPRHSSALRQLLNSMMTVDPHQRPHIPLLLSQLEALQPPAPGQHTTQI
Experimental: as §1

AAK1 = AAK1 (Homo sapiens, UniProt Q2M2I8); assay: KINOMEscan; type: binding; design: purchased Eurofins DiscoverX (KINOMEscan); details: 35 at 1 µM; read-out: % inhibition
Sequence of AAK1 (Q2M2I8 whole entry): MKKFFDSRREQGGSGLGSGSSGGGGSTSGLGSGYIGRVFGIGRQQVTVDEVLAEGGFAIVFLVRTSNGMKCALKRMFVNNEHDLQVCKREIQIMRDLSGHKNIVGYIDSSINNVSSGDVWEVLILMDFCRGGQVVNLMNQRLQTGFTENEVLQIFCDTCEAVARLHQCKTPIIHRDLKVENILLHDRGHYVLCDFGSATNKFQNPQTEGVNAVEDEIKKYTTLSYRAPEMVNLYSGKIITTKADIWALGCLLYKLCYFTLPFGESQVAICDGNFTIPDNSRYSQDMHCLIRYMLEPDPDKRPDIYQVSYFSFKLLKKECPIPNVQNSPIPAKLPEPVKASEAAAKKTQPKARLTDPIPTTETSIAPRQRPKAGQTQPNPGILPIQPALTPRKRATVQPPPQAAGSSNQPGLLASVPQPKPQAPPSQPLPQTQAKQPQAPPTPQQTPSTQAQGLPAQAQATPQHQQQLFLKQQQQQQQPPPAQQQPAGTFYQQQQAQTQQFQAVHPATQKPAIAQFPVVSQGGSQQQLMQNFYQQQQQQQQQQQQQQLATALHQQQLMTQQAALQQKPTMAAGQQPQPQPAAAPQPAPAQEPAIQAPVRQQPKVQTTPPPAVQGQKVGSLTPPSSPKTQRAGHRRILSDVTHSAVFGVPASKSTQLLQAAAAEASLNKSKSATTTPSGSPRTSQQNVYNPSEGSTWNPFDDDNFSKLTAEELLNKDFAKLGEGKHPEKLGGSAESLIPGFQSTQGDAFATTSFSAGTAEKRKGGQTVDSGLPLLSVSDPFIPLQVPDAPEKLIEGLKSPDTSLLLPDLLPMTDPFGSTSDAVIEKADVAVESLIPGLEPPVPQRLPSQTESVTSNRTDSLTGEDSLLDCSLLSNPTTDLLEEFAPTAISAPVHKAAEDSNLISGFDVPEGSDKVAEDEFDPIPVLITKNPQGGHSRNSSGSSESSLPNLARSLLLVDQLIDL
Experimental: as §1

FLT3(ITD,D835V) = assay: KINOMEscan; type: binding, human; details: 35 at 1 µM; read-out: % inhibition
Experimental: as §1

FLT3(ITD,F691L) = assay: KINOMEscan; type: binding, human; details: 35 at 1 µM; read-out: % inhibition
Experimental: as §1

SMILES | pIC50 (GAK [1]) | Primary Metabolism Site [2] | activity at 1 µM (GSK3B) | activity at 1 µM (LYN) | activity at 1 µM (PIK3CA) | activity at 1 µM (CAMK4) | activity at 1 µM (STK39) | activity at 1 µM (NEK4) | activity at 1 µM (ACVR1B) | activity at 1 µM [3] | activity at 1 µM (BRAF) | activity at 1 µM (CSNK1E) | activity at 1 µM (GAK [4]; 35 at 1 µM, read-out: % inhibition) | inhibition at 1 µM (GAK [4]; KinomeScan, screened at 1 μM, read-out: kinases inhibited at 1 μM: GAK) | activity at 1 µM (STK16) | activity at 1 µM (AAK1) | activity (FLT3(ITD,D835V)) | activity (FLT3(ITD,F691L))
COc1cc2nccc(Nc3cc(OC)c(OC)c(OC)c3)c2cc1OC [Compound 8] | 7.60 | Aniline | – | – | – | – | – | – | – | – | – | – | – | – | – | – | – | –
Brc1ccc2nccc(Nc3ccc4cn[nH]c4c3)c2c1 [Compound 35, 6-Bromo-N-(1H-indazol-6-yl)quinolin-4-amine] | – | – | 97% | 100% | 100% | 100% | 100% | 100% | 100% | 90% | 92% | 100% | 10% | 90% | 98% | 100% | 100% | 100%
